Test results as given in PMC11079024, “Identification of a family of species-selective complex I inhibitors as potential anthelmintics” (Nature Communications, 2024).
Where two headings read alike, the source gives them in different places.

How the values were obtained:
[1] = system: ben-1 mutant (ECA882) C. elegans; experiment: microbe, parasite or virus in culture; details: Caenorhabditis elegans
Procedure, shortened: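 Development and viability scored from single well images as total worm pixels divided by the matching DMSO control value, mean of ≥3 replicates. Worms added as synchronized L1s to HB101 suspension in liquid NGM with compound (1% DMSO v/v), grown 6 days at 20 °C with shaking.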

[2] = molecular target: B. taurus (heart) complex I (Bos taurus, UniProt P03887+P17694+P42026); experiment: biochemical; assay type: biochemical
Procedure, shortened: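 Complex I activity followed as DCIP reduction (600 nm, 30 s reads, 15 min) with 80 μM NADH and 60 μM decylubiquinone in 25 mM KPi pH 7.5 containing 2 μM antimycin A and 2 mM KCN. Freeze-thawed mouse or bovine heart mitochondria at 0.2 mg/mL; initial-rate percent of solvent control, single-point 100 μM or dose-response.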

[3] = system: L1 wild-type C. elegans; experiment: microbe, parasite or virus in culture; details: Caenorhabditis elegans, read-out: C. elegans KCN Survival Assay LC50, estimated from fitted dose-response curves; mean of at least two biological replicates

B. taurus (heart) complex I, sequence (P03887 whole entry): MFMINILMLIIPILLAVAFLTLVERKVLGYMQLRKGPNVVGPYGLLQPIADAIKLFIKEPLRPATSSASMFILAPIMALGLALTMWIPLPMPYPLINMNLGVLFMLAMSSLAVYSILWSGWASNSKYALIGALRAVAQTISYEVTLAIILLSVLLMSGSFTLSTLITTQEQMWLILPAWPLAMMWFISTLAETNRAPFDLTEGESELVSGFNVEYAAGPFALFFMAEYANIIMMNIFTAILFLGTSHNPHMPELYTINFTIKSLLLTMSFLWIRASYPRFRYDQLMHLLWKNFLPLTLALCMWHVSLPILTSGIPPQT
B. taurus (heart) complex I, sequence (P17694 34-463): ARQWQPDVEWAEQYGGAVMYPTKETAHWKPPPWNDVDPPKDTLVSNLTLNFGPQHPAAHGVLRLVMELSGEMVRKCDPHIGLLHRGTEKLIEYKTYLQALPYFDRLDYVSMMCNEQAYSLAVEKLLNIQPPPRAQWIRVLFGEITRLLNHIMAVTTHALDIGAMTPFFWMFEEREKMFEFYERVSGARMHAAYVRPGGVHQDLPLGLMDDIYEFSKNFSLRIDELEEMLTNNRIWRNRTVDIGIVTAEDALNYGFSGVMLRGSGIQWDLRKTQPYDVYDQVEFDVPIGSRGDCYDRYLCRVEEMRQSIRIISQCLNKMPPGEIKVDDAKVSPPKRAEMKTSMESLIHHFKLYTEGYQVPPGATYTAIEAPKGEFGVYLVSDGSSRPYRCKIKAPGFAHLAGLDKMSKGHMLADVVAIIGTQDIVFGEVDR
B. taurus (heart) complex I, sequence (P42026 38-216): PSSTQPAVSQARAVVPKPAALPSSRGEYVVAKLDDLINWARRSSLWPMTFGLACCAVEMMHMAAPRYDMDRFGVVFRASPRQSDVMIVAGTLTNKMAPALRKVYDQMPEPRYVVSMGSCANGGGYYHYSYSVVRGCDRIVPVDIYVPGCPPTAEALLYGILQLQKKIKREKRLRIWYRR

In the case of `Cc1ccc2nc(C(C)c3ccc(CC(C)C)cc3)[nH]c2c1` (stereo not drawn) [STL482096], the LC50 ([1]; read-out: C. elegans (ben-1) Development & Viability Assay LC50) is reported as over 1000 µM, the LC50 ([1]; read-out: C. elegans ben-1 LC50) is reported as over 500 µM and the LC50 ([1]; read-out: C. elegans ben-1 log10 LC50 (converted)) is reported as over 500 µM. The IC50 ([2]; B. taurus heart mitochondria, estimated from fitted dose-response curves, read-out: B. taurus Complex I IC50) was 12.3 µM, the “Log IC50 B. taurus complex I” value ([2]; log10 of IC50 in µM, B. taurus mitochondria) was 1.09 µM and the LC50 [3] was 6.76 µM.
